# Assay results reported in patent publication US20230073461A1, “C[…]” (BioNTech SE, priority 2020, published 2023).
# Experiments:
# [1] = biological target: human ACE2 peptidase domain (amino acids 1-615 of human ACE2 with C-terminal His-10 and Avi tags) (human) (UniProt Q9BYF1)
# [2] = biological target: human ACE2 peptidase domain (amino acids 1-615 of human ACE2 with C-terminal His-10 and Avi tags) (human) (UniProt Q9BYF1); experiment: biolayer interferometry; compared with a literature value for monomeric RBD
# [3] = Single dose IV PK, metabolism and excretion of LNP lipids in rats; assay type: in vivo; details: for drop of concentration in liver / drop of concentration in plasma: two weeks
# Description: A single dose PK study of ALC-0315 and […] following intravenous (IV) bolus injection of a nanoparticle formulation in rats was conducted to assess the PK and metabolism of lipid excipients ALC-0315 and ALC-0159.
# (§1) In vitro metabolism of ALC-0315 and ALC-0159 was evaluated in blood, liver microsomes, S9 fractions, and hepatocytes from mice, rats, monkeys, and humans. In vivo metabolism was examined in rat plasma, urine, faeces, and liver samples from the PK study. […] ALC-0315 and ALC-0159 are apparently metabolised by hydrolytic metabolism of the ester and amide functionalities, respectively, and this hydrolytic metabolism is observed across the species evaluated.
# [4] = In vitro metabolism in blood, liver microsomes, S9 fractions, hepatocytes; assay type: in vitro ADME, mice, rats, monkeys, and humans; details: rat samples
# Description: as §1
# UniProt Q9BYF1, sequence (Q9BYF1 18-615 limits assumed): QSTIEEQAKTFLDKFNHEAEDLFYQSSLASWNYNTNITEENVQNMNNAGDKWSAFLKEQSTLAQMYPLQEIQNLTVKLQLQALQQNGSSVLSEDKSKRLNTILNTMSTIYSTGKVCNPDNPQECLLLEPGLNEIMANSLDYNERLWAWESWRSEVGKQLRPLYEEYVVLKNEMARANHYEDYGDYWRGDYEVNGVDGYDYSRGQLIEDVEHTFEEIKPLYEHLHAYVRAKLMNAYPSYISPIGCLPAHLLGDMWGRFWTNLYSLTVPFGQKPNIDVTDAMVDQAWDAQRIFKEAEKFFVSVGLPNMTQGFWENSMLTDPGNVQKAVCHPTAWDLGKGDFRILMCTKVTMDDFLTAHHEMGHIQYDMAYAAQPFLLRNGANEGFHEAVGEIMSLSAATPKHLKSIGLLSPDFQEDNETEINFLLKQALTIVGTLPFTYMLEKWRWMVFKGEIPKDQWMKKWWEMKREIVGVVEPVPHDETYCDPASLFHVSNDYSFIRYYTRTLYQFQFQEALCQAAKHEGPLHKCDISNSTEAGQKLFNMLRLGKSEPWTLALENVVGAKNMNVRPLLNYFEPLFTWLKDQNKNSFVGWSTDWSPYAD
Compound,Kd [1] [pM],fold of the reported KD of monomeric RBD [2] [fold],eliminated unchanged in faeces [3],drop of concentration in liver ([3]; IV bolus of LNP) [fold],drop of concentration in plasma ([3]; IV bolus of LNP),"half-life ([3]; rat, plasma and liver, IV bolus of LNP, read-out: apparent terminal t½ in plasma and liver) [h]",rate of metabolism in vitro and in vivo [4],apparent terminal t½ in plasma and liver ([3]; IV bolus of LNP) [h]
RBD-foldon trimer encoded by BNT162b1 (SARS-CoV-2 spike receptor-binding domain fused at its C-termi (other; other documents disagree on this pair),5,1000,–,–,–,–,–,–
"CCCCCCCCC(CCCCCC)C(=O)OCCCCCCN(CCCCO)CCCCCCOC(=O)C(CCCCCC)CCCCCCCC (stereo not drawn) [ALC-0315, ((4-hydroxybutyl)azanediyl)bis(hexane-6,1-diyl)bis(2-hexyldecanoate)]",–,–,little to no unchanged material,~4,approximately 7000 fold,144 to 192,relatively slowly,–
"CCCCCCCCCCCCCCN(CCCCCCCCCCCCCC)C(=O)COCCOCCOCCOCCOCCOCCOCCOCCOCCOCCOCCOCCOCCOCCOCCOCCOCCOCCOCCOCCOCCOCCOCCOCCOCCOCCOCCOCCOCCOCCOCCOCCOCCOCCOCCOCCOCCOCCOCCOCCOCCOCCOCCOCCOCCOC [ALC-0159, 2-[(polyethylene glycol)-2000]-N,N-ditetradecylacetamide]",–,–,50%,> 250,approximately 8000 fold,–,relatively slowly,48 to 72
